Reference: patent US11680043B2 (priority 2021, dated 2023)
Several values for one entry are separate records, joined by “and”; a condition that tells them apart may be missing. Identical values can stand only once. Counter-ions that a name gives are not always drawn.

Assay: Solubility of psilocin salts in saline
Details: for XRPD of Residue: solid residue after 5 hrs in saline (Table 9)
[1] = Saline, updated summary (Table 10)
[2] = pH of saturated solution in saline (Table 9)

Row | Compound | pH at 5 hrs [1] | pH at 5 hrs [2] | XRPD of Residue | Solubility in Saline (Table 4 summary) [mg/mL] | pH at 5 hrs (Saline, updated summary (Table 10), hydrochloride) | pH at 5 hrs (pH of saturated solution in saline (Table 9), hydrochloride)
1 | CN(C)CCc1c[nH]c2cccc(O)c12.O=S(=O)(O)c1cccc2c(S(=O)(=O)O)cccc12 [Psilocin 1,5-napthalenedisulfonate NAP Pattern 1] | 2.0 | 2.0 | NAP Pattern 1 | – | – | –
2 | CN(C)CCc1c[nH]c2cccc(O)c12.O=C(O)c1ccccc1 [Psilocin benzoate BEN Pattern 1, Psilocin benzoate] | 6.8 and 6.9 | 6.8 and 6.9 | BEN Pattern 1 | 5.0 | – | –
3 | CN(C)CCc1c[nH]c2cccc(O)c12 [Psilocin free base, Psilocin, reference compound] | 9.8 and 9.9 | 9.8 and 9.9 | Freeform Pattern 1 | – | – | –
4 | CN(C)CCc1c[nH]c2cccc(O)c12 [Psilocin hydrochloride HCl Pattern 1, Psilocin hydrochloride] | – | – | – | – | 4.0 and 5.4 | 6.0 and 6.1
5 | CN(C)CCc1c[nH]c2cccc(O)c12.O=C(O)c1ccccc1O [Psilocin salicylate SAL Pattern 1, Psilocin salicylate] | 4.2 | 4.2 | SAL Pattern 1 | – | – | –
